Measured values: PubChem BioAssay (NCI)
Where “and” joins values, the source holds several entries; their conditions need not be identical. Identical values can stand only once.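 Method: 48-hour compound exposure of cells in 96-well plates, five concentrations, linear interpolation of endpoints. GI50 marks 50% less growth. Definition used: TGI = concentration required for complete inhibition of growth.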

Columns and labels:
Test in all cases: DTP human tumour cell line panel, 48 h
[1] = tested on: A549 NSCLC
[2] = tested on: K-562 leukemia
[3] = tested on: LOX IMVI melanoma
[4] = tested on: MALME-3M melanoma
[5] = tested on: OVCAR-3 ovarian
[6] = tested on: OVCAR-5 ovarian
[7] = tested on: SN12C renal
[8] = tested on: SNB-75 CNS
[9] = tested on: SR leukemia
[10] = tested on: UACC-62 melanoma

SMILES	GI50 [1]	TGI [1]	GI50 [2]	TGI [2]	GI50 [3]	TGI [3]	GI50 [4]	TGI [4]	GI50 [5]	TGI [5]	GI50 [6]	TGI [6]	GI50 [7]	TGI [7]	GI50 [8]	TGI [8]	GI50 [9]	TGI [9]	GI50 [10]	TGI [10]
Cc1cc(Nc2ncnc3ccc(NC4=NC(C)(C)CO4)cc23)ccc1Oc1ccn2ncnc2c1	14.9 µM and > 10 µM	82.9 µM and > 10 µM	17.1 µM and > 10 µM	> 100 µM	13.4 µM and > 10 µM	31.3 µM and > 10 µM	14.7 µM and > 10 µM	35.7 µM and > 10 µM	14.4 µM and > 10 µM	52.6 µM and > 10 µM	17.1 µM and > 10 µM	62.9 µM and > 10 µM	11 µM and > 10 µM	65.5 µM and > 10 µM	15.6 µM and > 10 µM	51.9 µM and > 10 µM	14.7 µM and > 10 µM	43.8 µM and > 10 µM	12.5 µM and > 10 µM	30.3 µM and > 10 µM
Cc1ccc2c(c1)NC(=O)CC(c1ccccc1)=N2		> 100 µM		26.7 µM		> 100 µM		> 100 µM		> 100 µM		> 100 µM		> 100 µM		> 100 µM		64.2 µM		> 100 µM
Cc1c(C)[n+](=O)c(C)c(C)n1[O-]	> 100 µM	> 100 µM	> 100 µM	> 100 µM	> 100 µM	> 100 µM	> 100 µM	> 100 µM	> 100 µM	> 100 µM	> 100 µM	> 100 µM	> 100 µM	> 100 µM	79.8 µM	> 100 µM	> 100 µM	> 100 µM	> 100 µM	> 100 µM
S=C1Nc2ccc(Cl)cc2C2(c3ccccc3)N3CCN=C3NN12 (stereo unspecified)	> 100 µM	> 100 µM	24.9 µM	66.1 µM	17.6 µM	36.2 µM	23.5 µM	78.4 µM	25.7 µM	55.2 µM	82.7 µM	> 100 µM	35.3 µM	> 100 µM	17.6 µM	> 100 µM	23.7 µM	88.8 µM	29.3 µM	> 100 µM
CC(=O)O/N=C1/C(c2c(O)[nH]c3cc(Br)ccc23)=Nc2ccccc21	1.48 µM	3.47 µM	0.553 µM	3.3 µM	1.13 µM	2.4 µM	3.48 µM	8.42 µM	0.771 µM	2.14 µM	2.51 µM	4.17 µM	0.873 µM	2.58 µM	0.811 µM	5.11 µM	1.63 µM	5.9 µM	1.17 µM	2.75 µM
O=C(CCl)N1c2ccccc2Sc2ccc3ccccc3c21	1.98 µM	4.75 µM	0.659 µM	3.49 µM	0.143 µM	0.299 µM	0.352 µM	1.32 µM	1.36 µM	2.72 µM	1.48 µM	3.03 µM	1.59 µM	2.98 µM	1.16 µM	2.4 µM	0.634 µM	9.74 µM	1.53 µM	2.88 µM
C1OC1CO[C@@H]1CO[C@H]2[C@@H]1OC[C@H]2OCC1CO1 (stereo partly specified)		> 100 µM		> 100 µM		> 100 µM		> 100 µM		> 100 µM		> 100 µM		> 100 µM		> 100 µM		> 100 µM		> 100 µM
O=C(Nc1ccc(Cl)cc1)c1cc(-c2ccc(Cl)cc2)c2sc(=O)[nH]c2n1	2.49 µM	12.7 µM	1.27 µM	> 100 µM	2.88 µM	10.6 µM	2.31 µM	6.25 µM	2.32 µM	7.45 µM	3.41 µM	29.3 µM	2.12 µM	20.1 µM	1.7 µM	8.03 µM	3.63 µM	> 100 µM	1.04 µM	4.91 µM
COC(=O)C1(F)C(=O)NC(=O)NC1O (stereo unspecified)		> 100 µM		> 100 µM		> 100 µM		> 100 µM		> 100 µM		> 100 µM		> 100 µM		> 100 µM		> 100 µM		> 100 µM
O=C(O)c1cc(N=Cc2ccccc2O)cc(C(=O)O)c1		> 100 µM		> 100 µM		> 100 µM		> 100 µM		> 100 µM		> 100 µM		> 100 µM		> 100 µM		> 100 µM		> 100 µM
COc1ccccc1/C=N\N=C(N/N=C/c1ccccc1OC)N/N=C/c1ccccc1OC	3.6 µM	> 100 µM	3.09 µM	36.4 µM	3.33 µM	11.3 µM	3.73 µM	20.8 µM	2.55 µM	13.1 µM	4 µM	> 100 µM	3.35 µM	19.7 µM	2.72 µM	9.4 µM	3.16 µM	12.5 µM	2.55 µM	7.71 µM
c1ccc2c(c1)[nH]c1cnc3c4cccnc4[nH]c3c12		34.7 µM		46.4 µM		45 µM		49 µM		32.2 µM		40.3 µM		34.1 µM		32.6 µM		48.7 µM		31.1 µM
COc1cc(-c2nc3sc4c(c3c(=O)[nH]2)CCCCCC4)cc(OC)c1OC	1.95 µM	> 33.2 µM	0.263 µM	> 33.2 µM	1.42 µM	> 33.2 µM	4.32 µM	20.5 µM	0.922 µM	8.94 µM	2.23 µM	> 33.2 µM	2.14 µM	> 33.2 µM	0.701 µM	2.52 µM	0.776 µM	> 33.2 µM	0.743 µM	30.3 µM
COc1cccc2c1C(=O)c1c(O)c3c(c(O)c1C2=O)C[C@@](O)(C(=O)CO)C[C@@H]3OC1C[C@H](N)[C@H](O)[C@H](C)O1 (stereo partly specified)	0.0355 µM	> 50 µM	0.089 µM	3.18 µM	0.0178 µM	0.181 µM	0.0462 µM	0.145 µM	0.167 µM		0.214 µM	14.5 µM	0.0253 µM	7.44 µM	0.034 µM	0.147 µM	0.00558 µM	0.826 µM	0.0346 µM	0.117 µM
COc1cc2c[n+](C)c3c4ccccc4ccc3c2cc1OC (tested in a mixture with another compound)		39.3 µM	2.29 µM		4.02 µM	30.9 µM	1.28 µM	3.25 µM and 14 µM	1.64 µM	7.41 µM and 21.4 µM	4.67 µM	52.7 µM	1.07 µM	5.58 µM and 17.7 µM	3.11 µM	8.49 µM and 15 µM	0.818 µM		3.08 µM	20.3 µM
Cc1cc(C)c(O)c(CN(C)Cc2cc(Cl)cc(Cl)c2O)c1	5.41 µM	28.5 µM	3.54 µM	> 100 µM	4.06 µM	17.1 µM	6.13 µM	20.6 µM	2.4 µM	8.16 µM	6.12 µM	20.5 µM	4.81 µM	20.4 µM	11.5 µM	36.4 µM	3.69 µM	24.5 µM	3.42 µM	13.1 µM
N#CCc1ncc(-c2ccc(C(F)(F)F)cc2)c(NC2CCCCCC2)n1	> 10 µM	> 10 µM	> 10 µM	> 10 µM	> 10 µM	> 10 µM	> 10 µM	> 10 µM	> 10 µM	> 10 µM	> 10 µM	> 10 µM	> 10 µM	> 10 µM	> 10 µM	> 10 µM	> 10 µM	> 10 µM	> 10 µM	> 10 µM
O=c1cc(-c2ccccc2)[nH]n1-c1nc2ccccc2[nH]1	4.46 µM	> 100 µM	3.94 µM	> 100 µM	4.61 µM	28.1 µM	17.7 µM	> 100 µM	4.46 µM	> 100 µM	12.5 µM	> 100 µM	6.84 µM	> 100 µM	4.66 µM	> 100 µM	5.86 µM	> 100 µM	3.1 µM	13.8 µM
NC(=O)C(c1ccccc1)N1CCOCC1 (stereo unspecified)		> 100 µM		> 100 µM		> 100 µM		> 100 µM		> 100 µM		> 100 µM		> 100 µM		> 100 µM		> 100 µM		> 100 µM
O=C1CN(C(=O)c2ccccc2)Cc2[nH]c3ccccc3c21		> 100 µM		> 100 µM		> 100 µM		> 100 µM		> 100 µM		> 100 µM		> 100 µM		> 100 µM		> 100 µM		> 100 µM
Cc1cc(NS(=O)(=O)c2ccc(NC(=O)c3cccc4c(Nc5ccc(S(=O)(=O)N=C(N)N)cc5)c5ccccc5nc34)cc2)no1		> 100 µM		> 100 µM		> 100 µM		> 100 µM		> 100 µM		> 100 µM		> 100 µM		> 100 µM		> 100 µM		> 100 µM
C=C1C(=O)O[C@H]2[C@H]1CC/C(COC(=O)CSCC(=O)OC/C1=C/CC[C@@]3(C)O[C@H]3[C@H]3OC(=O)C(=C)[C@@H]3CC1)=C\CC[C@@]1(C)O[C@@H]21	5 µM	18.2 µM	0.636 µM	4.06 µM	1.58 µM	3.1 µM	1.24 µM	2.8 µM	0.832 µM	2.12 µM	1.85 µM	3.86 µM	1.6 µM	3.54 µM	3.13 µM	10.5 µM	0.282 µM	2.15 µM	1.69 µM	3.95 µM
CO[C@@H]1/C=C(C)/C=C/[C@@H](C)/C=C(\C)C(=O)OC(/C(C)=C/C=C(\C)CNC(=O)[C@H](CO)NC=O)[C@@H](C)/C=C/C=C/[C@H](OC)CC/C=C(C)/C=C/C1 (stereo partly specified)	0.00881 µM	0.0242 µM	< 0.005 µM	0.238 µM	< 0.005 µM	< 0.005 µM	0.0101 µM	0.0261 µM	< 0.005 µM	0.605 µM	0.178 µM	12.5 µM	0.182 µM	12.2 µM	0.242 µM	> 25.8 µM	< 0.005 µM	> 11.9 µM	< 0.005 µM	< 0.005 µM
O=C(N/N=C/c1ccccc1O)C(=O)Nc1ccc(F)cc1	3.67 µM	> 100 µM	5.02 µM	> 100 µM	4.28 µM	> 100 µM	10.7 µM	82.7 µM	3.18 µM	> 100 µM	6.69 µM	> 100 µM	6.46 µM	> 100 µM	14.2 µM	69.4 µM	2.52 µM	> 100 µM	3.32 µM	23.1 µM
